Assay [1] deals with Guinea Pig Eosinophils. The assay is described as follows: Suppression of LTB4-induced chemotactic reaction of guinea pig eosinophils. The note with it: Cavia porcellus, Eosinophil, test drug 1 × 10^-5 M, LTB4 10^-8 M, read-out: Suppression Rate (%). In kind it is cell-based, guinea pigs. How it is done:
To male Hartley guinea pigs, 2 ml of equine serum (Bio-Whittaker, Inc.) was intraperitoneally administered once weekly for 8 consecutive weeks. At 48 hours after final administration, 75 ml of physiological saline was intraperitoneally injected, after which the recovered solution was centrifuged at 400 × g for 5 minutes. The resulting sediment was suspended in 5 ml of Percoll solution (density d=1.07) and layered on top of the discontinuous density layer of Percoll solution (density d=1.112, 5 ml; d=1.095, 10 ml; d=1.090, 10 ml; d=1.085, 5 ml), followed by centrifugation at 1,000 × g for 25 minutes (20°C). The cell layer formed at the interface between density d= 1.112 and density d=1.095 was collected. Erythrocytes present in the collected cell sediment were removed by hypotonic treatment (suspended in water for […]).
The cell sediment was washed 3 times with Hanks' solution containing 10 mM Hepes (Dojin Kagaku) (Hanks-Hepes) and suspended in a Hanks-Hepes solution containing 2% human serum albumin (Wako Pure Chemical Industry or Sigma) (Hanks-Hepes-HSA) to a concentration of 5.56×10^6 cells/ml. Eosinophil purity was 90%, viability was over 98%.
To a 24-well culture dish, which serves as a lower chamber, 600 µl of Hanks-Hepes-HSA solution containing LTB4 (final concentration 10^-8 M, Cascade Biochemical Ltd.), was transferred, followed by incubation at 37°C for 30 minutes in a carbon dioxide incubator. Separately, 200 µl of eosinophil suspension (5×10^6 cells/ml), previously incubated at 37°C for 15 minutes, was added to Chemotaxicell (polycarbonate membrane, pore size 3 µm, thickness 10 µm), which serves as an upper chamber, after the upper chamber was attached to the 24-well culture dish. After 2 hours of reaction in the carbon dioxide incubator, the Chemotaxicell was removed; 60 µl of 2% (w/v) EDTA solution in physiological saline was added to the liquid in the lower chamber. After ice-cooling, the cells migrating into the inner solution of the lower chamber were counted using a blood cell counter [Coulter Counter (trade name)]. The test drug, dissolved in N,N-dimethylformamide (DMF), was added to both the upper and lower chambers to a final concentration of 10^-5 M. Equation 2 Chemotactic reaction suppression rate = [1-(number of migrating cells in the presence of drug/number of migrating cells in the absence of drug)] × 100 [formula] suppression rates of LTB4 -induced chemotactic reaction by test drug (1 × 10^-5 M concentration) were calculated.

The test system of assay [2] is Male Hartley guinea pigs. The assay is described as follows: Effect on histamine-induced increases in microvascular permeability in skin in guinea pigs. In kind it is in vivo. As to conditions: Cavia porcellus; 3 mg/kg oral administration 1 hour before histamine; guinea pig skin. As for the experimental part: Male Hartley guinea pigs weighing about 500 g were used. After the dorsal hair was shaved under ether anesthesia, 1 ml of a 2.5% pontamine sky blue solution was injected intravenously, and then 0.1 ml of histamine at 3 µg/ml was injected intradermally into 2 sites (left and right) in the back. Thirty minutes after the injection of histamine, animals were fainted by knocking in the head, decapitated and killed by bleeding, after which the skin of the back was removed. The long and short diameters (mm) of each blue spot were measured and multiplied; the mean product was taken as the vascular permeability index. Test compounds were suspended in a 5% gum arabic solution and orally administered in a volume of 0.2 ml/100 g body weight at 1 hour before histamine administration. Animals in the control group received the same volume of a 5% gum arabic solution. Equation 1 Inhibition (%) of histamine-induced increases in microvascular permeability in skin = 100 × (1-vascular permeability index in the presence of drug/vascular permeability index in control group) [formula]

Structures can show the parent of a compound that is named as a salt.

Regarding `c1ccc(C(OC2CCN(CCCOc3ccc4ncnn4n3)CC2)c2ccccc2)cc1` [Reference Example B2, 6-[3-[4-(diphenylmethoxy)piperidino]propoxy]-[1,2,4]triazolo[1,5-b]pyridazine fumarate], the inhibition at 10 µM in assay [1] was 54%. In the case of `c1ccc(C(OC2CCN(CCCNc3ccc4ncnn4n3)CC2)c2ccccc2)cc1` [Reference Example B6, 6-[3-[4-(diphenylmethoxy)piperidino]-propylamino][1,2,4]triazolo[1,5-b]pyridazine], the inhibition at 10 µM in assay [1] is 64%. In addition, the inhibition in vivo at 3 mg/kg in assay [2] came to 91%. `c1ccc(C(OC2CCN(CCCCNc3ccc4ncnn4n3)CC2)c2ccccc2)cc1` [Reference Example B12, 6-[4-[4-(diphenylmethoxy)piperidino]-butylamino][1,2,4]triazolo[1,5-b]pyridazine]: testing at 3 mg/kg in assay [2] gave an inhibition in vivo of 91%. In assay [2], `O=C(CCN1CCC(OC(c2ccccc2)c2ccccc2)CC1)Nc1ccc2ncnn2n1` [Reference Example B18, 3-[4-(diphenylmethoxy)piperidino]-N-([1,2,4]triazolo[1,5-b]pyridazin-6-yl)propionamide] showed an inhibition in vivo at 3 mg/kg of 91%. Consider `Cc1nc2ccc(NCCCN3CCC(OC(c4ccccc4)c4ccccc4)CC3)nn2n1` [Reference Example B20, 6-[3-[4-(diphenylmethoxy)piperidino]-propylamino]-2-methyl[1,2,4]triazolo[1,5-b]pyridazine], for which the inhibition at 10 µM in assay [1] came out at 61%. The same compound returned an inhibition in vivo at 3 mg/kg in assay [2] of 92%. On to `Cc1nc2ccc(OCCCN3CCC(OC(c4ccccc4)c4ccccc4)CC3)nn2n1` [Reference Example B21, 6-[3-[4-(diphenylmethoxy)piperidino]propoxy]-2-methyl[1,2,4]triazolo[1,5-b]pyridazine], for which the inhibition in vivo at 3 mg/kg in assay [2] is 91%.

Consider `CC(C)(C)c1nc2ccc(NCCCN3CCC(OC(c4ccccc4)c4ccccc4)CC3)nn2n1` [Reference Example B34, 2-tert-butyl-6-[3-[4-(diphenylmethoxy)-piperidino]propylamino][1,2,4]triazolo[1,5-b]pyridazine fumarate], for which the inhibition at 10 µM in assay [1] was determined as 50%. For the compound `c1ccc(C(OC2CCN(CCCCCCNc3ccc4ncnn4n3)CC2)c2ccccc2)cc1` [Reference Example B35, 6-[6-[4-(diphenylmethoxy)piperidino]-hexylamino][1,2,4]triazolo[1,5-b]pyridazine], in assay [1], the inhibition at 10 µM amounted to 52%. For `COC(=O)c1nc2ccc(NCCCN3CCC(OC(c4ccccc4)c4ccccc4)CC3)nn2n1` [Reference Example B36, methyl 6-[3-[4-(diphenylmethoxy)piperidino]-propylamino][1,2,4]triazolo[1,5-b]pyridazine-2-carboxylate], the inhibition at 10 µM in assay [1] stood at 64%. As to `c1ccc(C(c2ccccc2)N2CCN(CCCCCCNc3ccc4ncnn4n3)CC2)cc1` [Reference Example B37, 6-[6-[4-(diphenylmethyl)-1-piperazinyl]-hexylamino][1,2,4]triazolo[1,5-b]pyridazine], 3 mg/kg produced 92% inhibition in vivo in assay [2]. Turning to `COc1cn2nc(OCCCN3CCC(OC(c4ccccc4)c4ccccc4)CC3)ccc2n1` [Reference Example B41, 6-[3-[4-(diphenylmethoxy)piperidino]propoxy]-2-methoxyimidazo[1,2-b]pyridazine], the inhibition in vivo at 3 mg/kg in assay [2] stood at 92%. `CC(C)(C(=O)O)c1cn2nc(OCCCN3CCC(OC(c4ccccc4)c4ccccc4)CC3)ccc2n1` [Reference Example B45, 2-[6-[3-[4-(diphenylmethoxy)piperidino]-propoxy]imidazo[1,2-b]pyridazin-2-yl]-2-methylpropionic acid] gave an inhibition in vivo at 3 mg/kg in assay [2] of 91%. Regarding `Cc1cc2ncnn2nc1OCCOCCN1CCN(C(c2ccccc2)c2ccccc2)CC1` [Reference Example B47, 6-[2-[2-[4-(diphenylmethyl)-1-piperazinyl]-ethoxy]ethoxy]-7-methyl[1,2,4]triazolo[1,5-b]pyridazine], the inhibition at 10 µM in assay [1] is 54%. Turning to `Cc1cc2ncnn2nc1OCCCCCCN1CCN(C(c2ccccc2)c2ccccc2)CC1` [Reference Example B51, 6-[6-[4-(diphenylmethyl)-1-piperazinyl]hexyloxy]-7-methyl[1,2,4]triazolo[1,5-b]pyridazine dihydrochloride], the inhibition at 10 µM in assay [1] is 80%.

Take `CC(C)c1cc2ncnn2nc1SCCOCCN1CCN(C(c2ccccc2)c2ccccc2)CC1` [Reference Example B59, 6-[2-[2-[4-(diphenylmethyl)-1-piperazinyl]-ethoxy]ethylthio]-7-isopropyl[1,2,4]triazolo[1,5-b]pyridazine dihydrochloride]: the inhibition at 10 µM in assay [1] came to 54%. For `CC(C)c1cc2ncnn2nc1OCCOCCN1CCN(C(c2ccccc2)c2ccccc2)CC1` [Reference Example B61, 6-[2-[2-[4-(diphenylmethyl)-1-piperazinyl]-ethoxy]ethoxy]-7-isopropyl[1,2,4]triazolo[1,5-b]pyridazine], the inhibition at 10 µM in assay [1] worked out at 50%. Still for that read-out and setting: the value for `CC(C)(C)c1cc2ncnn2nc1OCCOCCN1CCN(C(c2ccccc2)c2ccccc2)CC1` [Reference Example B62, 7-tert-butyl-6-[2-[2-[4-(diphenylmethyl)-1-piperazinyl]ethoxy]ethoxy][1,2,4]triazolo[1,5-b]pyridazine dihydrochloride] was 52%.

These data come from patent EP1243271A1, “NASAL DROPS CONTAINING FUSED PYRIDAZINE DERIVATIVES” (Takeda Chemical Industries, Ltd., priority 1999, dated 2001).
